# Source: patent US20140220036A1, “METHODS FOR TREATING NEURODEGENERATIVE DISEASES AND FOR IDENTIFYING AGENTS USEFUL FOR TREATING NEURODEGENERATIVE DISEASES” (priority 2013, published 2014)
# Tested on: fast axonal transport (FAT)
# Test: not given
# Settings: Kanaan et al. 2011; squid axons; cited from earlier work
row,Molecule,effect on inhibition of axonal transport by PAD peptide
1,Cn1cc(C2=C(c3coc4ccccc34)C(=O)NC2=O)c2cc(Br)ccc21 [ING-135],blocked

# Tested on: h-tau42-dependent transmitter block
# Test: Oral administration of agents to squid, then presynaptic h-tau42 injection and recording of synaptic transmission
# Type: in vivo, squid (Loligo paelli)
# Settings: systemic administration of agent
# Method: Squid received an oral dose of each agent effective for such inhibiting phosphorylation of the tau protein. At 24 hours after the first dose a second dose was given, and the electrophysiological experiments were performed 1 hour after the second feeding. It was determine that after 24 hours of the double administration, an effective concentration of each agent effective for such inhibiting phosphorylation of the tau protein was measured in the CNS of the gastrically intubated squid (n=10 squid). Synapses from the treated squid were microinjected at the presynaptic axon with h-tau42 (an approximate 80 nM final concentration h-tau42 (n=19), considering a 100× dilution factor. Pre- and post-synaptic potentials were recorded for 90 min.
# The squid (Loligo paelli) stellate ganglia isolation from the mantle and the electrophysiological techniques used have been described previously (Llinás, et al., Proc. Natl. Acad. Sci. U.S.A. 1985; 82: 3035-3039). Two glass micropipette electrodes impaled the largest (most distal) presynaptic terminal digit at the synaptic junction site while the post-synaptic axon was impaled by one microelectrode at the junctional site. One of the pre-electrodes was used for pressure microinjection of h-tau42 and also supported voltage clamp current feedback, while the second monitored membrane potential. The total volume injected fluctuated between 0.1 and 1 pl. (Llinás, et al., Proc. Natl. Acad. Sci. U.S.A. 1985; 82: 3035-3039). The exact location of injection and the diffusion and steady-state distribution of the protein/fluorescent dye mix (0.001% dextran fluorescein) were monitored using a fluorescence microscope attached to a Hamamatsu camera system (Middlesex, N.J.). In all experiments a good correlation was observed between the localization of the fluorescence and the electrophysiological findings.
# Following presynaptic and post-synaptic axon impalements and the determination of normal synaptic transmission (Llinás, et al., Proc. Natl. Acad. Sci. U.S.A. 1985; 82: 3035-3039; Llinás, et al. Proc. Natl. Acad. Sci. U.S.A. 1994; 91: 12990-12993; Lin, et al., Proc. Natl. Acad. Sci. U.S.A. 1990; 87: 8257-8261), the effect of human tau on synaptic release was evaluated by presynaptic microinjections administered under direct visualization using a fluorescent dye/protein mix, reaching a final concentration after diffusion of approximately 80 nM. (See, Materials and Methods) Presynaptic and post-synaptic potentials were recorded simultaneously under current-clamp configuration. Presynaptic spikes were activated every 5 minutes (low-frequency protocol). With this paradigm, it was determined that 5-10 minutes after an injection of h-tau42, a reduction of transmitter release could be observed. With further time, a total block of transmission resulted, within 30-40 minutes depending on the length of the release zone in the preterminal axon (see, e.g. FIG. 2). […] By contrast, following administration of each agent effective for such inhibiting phosphorylation of the tau protein to the squid (see bellow) h-tau42-dependent transmitter block was prevented (see, generally, Figures).
row,Molecule,h-tau42 induced functional and biochemical abnormalities in the presynaptic axon
1,Cn1cnc(N)c2ncnc1-2 [3-methyladenine],prevented or ameliorated
2,O=C1CN(/N=C/c2ccc(-c3ccc([N+](=O)[O-])cc3)o2)C(O)=N1 [Dantrolene],prevented or ameliorated
3,Cn1cc(C2=C(c3coc4ccccc34)C(=O)NC2=O)c2cc(Br)ccc21 [ING-135],prevented or ameliorated
4,[Cl-].[Li+] [LiCl],prevented or ameliorated
5,C[S+]([O-])c1ccc(-c2nc(-c3ccncc3)c(-c3ccc(F)cc3)[nH]2)cc1 (centres unmarked) [SB203580],prevented or ameliorated
6,Cn1cc(C2=C(c3ccc(Cl)cc3Cl)C(=O)NC2=O)c2ccccc21 [SB216763],prevented or ameliorated
7,Xitospongin C,prevented or ameliorated
